Data from ChEMBL document CHEMBL1201862, “PubChem BioAssay data set” (2004).
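Following 48 hours of exposure in 96-well plates, responses at five concentrations were used to interpolate endpoints linearly. GI50 marks 50% less growth.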 Calls of active or inactive are those of the source. Rule as the data show it: active = GI50 up to about 1.1 µM and inactive = higher.

Assays:
Assay in all cases: NCI tumour cell line growth inhibition, 48 h
COLO 205 = tested on: COLO 205
NCI-H226 = tested on: NCI-H226
SNB-75 = tested on: SNB-75
HOP-92 = tested on: HOP-92
HCC 2998 = tested on: HCC 2998
SF-295 = tested on: SF-295
SK-MEL-5 = tested on: SK-MEL-5
RPMI-8226 = tested on: RPMI-8226
SN12C = tested on: SN12C
OVCAR-5 = tested on: OVCAR-5
786-0 = tested on: 786-0
SR = tested on: SR
MCF7 = tested on: MCF7
OVCAR-3 = tested on: OVCAR-3
OVCAR-8 = tested on: OVCAR-8
HOP-62 = tested on: HOP-62
Hs-578T = tested on: Hs-578T
NCI/ADR-RES = tested on: NCI/ADR-RES
CCRF-CEM = tested on: CCRF-CEM
OVCAR-4 = tested on: OVCAR-4
Malme-3M = tested on: Malme-3M
MDA-N = tested on: MDA-N
CAKI-1 = tested on: CAKI-1
BT-549 = tested on: BT-549
HT-29 = tested on: HT-29
RXF 393 = tested on: RXF 393
SNB-19 = tested on: SNB-19
SK-MEL-28 = tested on: SK-MEL-28
SF-539 = tested on: SF-539
EKVX = tested on: EKVX
MDA-MB-231 = tested on: MDA-MB-231
UO-31 = tested on: UO-31
MOLT-4 = tested on: MOLT-4
IGROV-1 = tested on: IGROV-1
A498 = tested on: A498
HCT-15 = tested on: HCT-15
T47D = tested on: T47D
KM12 = tested on: KM12
M14 = tested on: M14
SK-MEL-2 = tested on: SK-MEL-2
U-251 = tested on: U-251
HCT-116 = tested on: HCT-116
NCI-H23 = tested on: NCI-H23
NCI-H460 = tested on: NCI-H460
TK-10 = tested on: TK-10
DU-145 = tested on: DU-145
UACC-257 = tested on: UACC-257
SK-OV-3 = tested on: SK-OV-3
ACHN = tested on: ACHN
UACC-62 = tested on: UACC-62
PC-3 = tested on: PC-3
MDA-MB-435 = tested on: MDA-MB-435
K562 = tested on: K562
NCI-H522 = tested on: NCI-H522
SF-268 = tested on: SF-268
LOX IMVI = tested on: LOX IMVI
SW-620 = tested on: SW-620
A549 = tested on: A549
HL-60 = tested on: HL-60

COC(=O)[C@@H]1[C@@H]2NC(=S)N[C@@]1(C)Oc1ccccc12
GI50 (COLO 205): 37.5 µM (inactive) | GI50 (NCI-H226): 91.4 µM (inactive) | GI50 (SNB-75): 27.4 µM (inactive) | GI50 (HOP-92): 49.9 µM (inactive) | GI50 (HCC 2998): 41.6 µM (inactive) | GI50 (SF-295): 38.5 µM (inactive) | GI50 (SK-MEL-5): 42 µM (inactive) | GI50 (RPMI-8226): 48.2 µM (inactive) | GI50 (SN12C): 46.2 µM (inactive) | GI50 (OVCAR-5): 60.4 µM (inactive) | GI50 (786-0): 75.7 µM (inactive) | GI50 (SR): 95.3 µM (inactive) | GI50 (MCF7): 45.7 µM (inactive) | GI50 (OVCAR-3): > 100 µM (inactive) | GI50 (OVCAR-8): 51.5 µM (inactive) | GI50 (HOP-62): 89.3 µM (inactive) | GI50 (Hs-578T): 51.9 µM (inactive) | GI50 (NCI/ADR-RES): 30.2 µM (inactive) | GI50 (CCRF-CEM): 61.9 µM (inactive) | GI50 (OVCAR-4): > 100 µM (inactive) | GI50 (Malme-3M): 52 µM (inactive) | GI50 (MDA-N): 18.4 µM (inactive) | GI50 (CAKI-1): 76.9 µM (inactive) | GI50 (BT-549): 83.6 µM (inactive) | GI50 (HT-29): 28.5 µM (inactive) | GI50 (RXF 393): > 100 µM (inactive) | GI50 (SNB-19): 49 µM (inactive) | GI50 (SK-MEL-28): > 100 µM (inactive) | GI50 (SF-539): 37.7 µM (inactive) | GI50 (EKVX): 52.5 µM (inactive) | GI50 (MDA-MB-231): 74.6 µM (inactive) | GI50 (UO-31): > 100 µM (inactive) | GI50 (MOLT-4): 0.324 µM (active) | GI50 (IGROV-1): 49 µM (inactive) | GI50 (A498): > 100 µM (inactive) | GI50 (HCT-15): 32.1 µM | GI50 (T47D): > 100 µM (inactive) | GI50 (KM12): 29.7 µM (inactive) | GI50 (M14): 42.8 µM (inactive) | GI50 (SK-MEL-2): > 100 µM (inactive) | GI50 (U-251): 38.3 µM (inactive) | GI50 (HCT-116): 67.6 µM (inactive) | GI50 (NCI-H23): 42.6 µM (inactive) | GI50 (NCI-H460): 44.2 µM (inactive) | GI50 (TK-10): > 100 µM (inactive) | GI50 (DU-145): 36.3 µM (inactive) | GI50 (UACC-257): > 100 µM (inactive) | GI50 (SK-OV-3): 47.8 µM (inactive) | GI50 (ACHN): 87.9 µM (inactive) | GI50 (UACC-62): 78.3 µM (inactive) | GI50 (PC-3): 63.5 µM (inactive) | GI50 (MDA-MB-435): 10.1 µM (inactive) | GI50 (K562): 29.5 µM (inactive) | GI50 (NCI-H522): 31.6 µM (inactive) | GI50 (SF-268): 39 µM (inactive) | GI50 (LOX IMVI): 37.6 µM (inactive) | GI50 (SW-620): 55.7 µM (inactive)

CC(C)OP(=O)(OC(C)C)C(C)(C)O
GI50 (COLO 205): > 100 µM (inactive) | GI50 (NCI-H226): > 100 µM (inactive) | GI50 (SNB-75): > 100 µM (inactive) | GI50 (HOP-92): > 100 µM (inactive) | GI50 (HCC 2998): > 100 µM (inactive) | GI50 (SF-295): > 100 µM (inactive) | GI50 (SK-MEL-5): > 100 µM (inactive) | GI50 (RPMI-8226): > 100 µM (inactive) | GI50 (SN12C): > 100 µM (inactive) | GI50 (OVCAR-5): > 100 µM (inactive) | GI50 (786-0): > 100 µM (inactive) | GI50 (SR): > 100 µM (inactive) | GI50 (MCF7): > 100 µM (inactive) | GI50 (OVCAR-3): > 100 µM (inactive) | GI50 (OVCAR-8): > 100 µM (inactive) | GI50 (HOP-62): > 100 µM (inactive) | GI50 (Hs-578T): > 100 µM (inactive) | GI50 (NCI/ADR-RES): > 100 µM (inactive) | GI50 (CCRF-CEM): > 100 µM (inactive) | GI50 (OVCAR-4): > 100 µM (inactive) | GI50 (Malme-3M): > 100 µM (inactive) | GI50 (MDA-N): > 100 µM (inactive) | GI50 (CAKI-1): > 100 µM (inactive) | GI50 (BT-549): > 100 µM (inactive) | GI50 (HT-29): > 100 µM (inactive) | GI50 (RXF 393): > 100 µM (inactive) | GI50 (SNB-19): > 100 µM (inactive) | GI50 (SK-MEL-28): > 100 µM (inactive) | GI50 (SF-539): > 100 µM (inactive) | GI50 (EKVX): > 100 µM (inactive) | GI50 (MDA-MB-231): > 100 µM (inactive) | GI50 (UO-31): > 100 µM (inactive) | GI50 (MOLT-4): > 100 µM (inactive) | GI50 (IGROV-1): > 100 µM (inactive) | GI50 (HCT-15): > 100 µM | GI50 (T47D): > 100 µM (inactive) | GI50 (KM12): > 100 µM (inactive) | GI50 (M14): > 100 µM (inactive) | GI50 (SK-MEL-2): > 100 µM (inactive) | GI50 (U-251): > 100 µM (inactive) | GI50 (HCT-116): > 100 µM (inactive) | GI50 (NCI-H23): > 100 µM (inactive) | GI50 (TK-10): > 100 µM (inactive) | GI50 (DU-145): > 100 µM (inactive) | GI50 (UACC-257): > 100 µM (inactive) | GI50 (SK-OV-3): > 100 µM (inactive) | GI50 (ACHN): > 100 µM (inactive) | GI50 (UACC-62): > 100 µM (inactive) | GI50 (PC-3): > 100 µM (inactive) | GI50 (MDA-MB-435): > 100 µM (inactive) | GI50 (K562): > 100 µM (inactive) | GI50 (NCI-H522): > 100 µM (inactive) | GI50 (SF-268): > 100 µM (inactive) | GI50 (LOX IMVI): > 100 µM (inactive) | GI50 (SW-620): > 100 µM (inactive) | GI50 (A549): > 100 µM (inactive) | GI50 (HL-60): 83.2 µM (inactive)
